Key:
Test in all cases: KinomeScan
Type in all cases: binding
Conditions in all cases: read-out: % Ctrl @ 10000 nM
TIE1 = target: T1, TIE1 (Homo sapiens, UniProt P35590)
T1 construct: host or cells: T7 phage grown in E. coli (BL21-derived)
Method in brief: (§1)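 Kinase-tagged T7 phage lysates were cleared by centrifugation and filtration, then incubated with liganded beads blocked with excess biotin and SeaBlock/1% BSA/0.05% Tween 20/1 mM DTT buffer plus test compound. Phage retained on beads was eluted and quantified by quantitative PCR.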

RAF1 = target: T2, RAF1 (Homo sapiens, UniProt P04049)
T2 construct: host or cells: E. coli host derived from BL21, T7 phage display
Method in brief: as §1

PIK3CB = target: T3, PIK3CB (Homo sapiens, UniProt P42338)
T3 construct: host or cells: E. coli host derived from BL21, infected with T7 phage
Method in brief: as §1

JNK2 = target: T4, JNK2 (Homo sapiens, UniProt P45984)
T4 construct: host or cells: T7 phage grown in E. coli host derived from BL21
Method in brief: as §1

RIOK1 = target: T5, RIOK1 (Homo sapiens, UniProt Q9BRS2)
T5 construct: host or cells: E. coli host derived from BL21, T7 phage display
Method in brief: as §1

CHEK1 = target: T6, CHEK1 (Homo sapiens, UniProt O14757)
T6 construct: host or cells: T7 phage in E. coli host derived from BL21
Method in brief: as §1

TYRO3 = target: T7, TYRO3 (Homo sapiens, UniProt Q06418)
T7 construct: host or cells: E. coli host derived from BL21, T7 phage
Method in brief: as §1

FGFR3(G697C) = target: T8, FGFR3(G697C) (Homo sapiens, UniProt P22607, G697C)
T8 construct: host or cells: T7 phage in E. coli host derived from BL21
Method in brief: as §1

PRKCH = target: T9, PRKCH (Homo sapiens, UniProt P24723)
T9 construct: host or cells: T7 phage in E. coli host derived from BL21
Method in brief: as §1

ABL1(M351T) = target: T10, ABL1(M351T) (Homo sapiens, UniProt P00519, M351T)
T10 construct: host or cells: E. coli (BL21-derived), T7 phage lysate
Method in brief: as §1

ABL1 = target: T11, ABL1 (Homo sapiens, UniProt P00519)
T11 construct: host or cells: E. coli (BL21-derived), T7 phage lysate
Method in brief: as §1

EPHA4 = target: T12, EPHA4 (Homo sapiens, UniProt P54764)
T12 construct: purchased Ambit Biosciences Corp; host or cells: T7 phage in E. coli host derived from BL21
Method in brief: as §1

IKK-alpha = target: T13, IKK-alpha (Homo sapiens, UniProt O15111)
T13 construct: host or cells: T7 phage grown in E. coli host derived from BL21
Method in brief: as §1

PFTK1 = target: T14, PFTK1 (Homo sapiens, UniProt O94921)
T14 construct: host or cells: E. coli host derived from BL21, infected with T7 phage
Method in brief: as §1

SRMS = target: T15, SRMS (Homo sapiens, UniProt Q9H3Y6)
T15 construct: host or cells: T7 phage grown in E. coli (BL21-derived)
Method in brief: as §1

CDK7 = target: T16, CDK7 (Homo sapiens, UniProt P50613)
T16 construct: host or cells: T7 phage in E. coli host derived from BL21
Method in brief: as §1

MYLK = target: T17, MYLK (Homo sapiens, UniProt Q15746)
T17 construct: host or cells: T7 phage grown in E. coli host derived from BL21
Method in brief: as §1

FYN = target: T18, FYN (Homo sapiens, UniProt P06241)
T18 construct: host or cells: T7 phage in E. coli host derived from BL21
Method in brief: as §1

MRCKB = target: T19, MRCKB (Homo sapiens, UniProt Q9Y5S2)
T19 construct: host or cells: T7 phage grown in E. coli host derived from BL21
Method in brief: as §1

RET(M918T) = target: T20, RET(M918T) (Homo sapiens, UniProt P07949, M918T)
T20 construct: host or cells: E. coli host derived from BL21, T7 phage display
Method in brief: as §1

CSNK1A1L = target: T21, CSNK1A1L (Homo sapiens, UniProt Q8N752)
T21 construct: host or cells: T7 phage in E. coli host derived from BL21
Method in brief: as §1

BTK = target: T22, BTK (Homo sapiens, UniProt Q06187)
T22 construct: host or cells: E. coli host derived from BL21
Method in brief: as §1

JNK1 = target: T23, JNK1 (Homo sapiens, UniProt P45983)
T23 construct: host or cells: T7 phage grown in E. coli host derived from BL21
Method in brief: as §1

MEK1 = target: T24, MEK1 (Homo sapiens, UniProt Q02750)
T24 construct: host or cells: E. coli host derived from the BL21 strain, infected with T7 phage
Method in brief: as §1

ACVR1B = target: T25, ACVR1B (Homo sapiens, UniProt P36896)
T25 construct: host or cells: E. coli (BL21-derived), T7 phage lysate
Method in brief: as §1

GSK3B = target: T26, GSK3B (Homo sapiens, UniProt P49841)
T26 construct: host or cells: T7 phage in E. coli host derived from BL21
Method in brief: as §1

AKT1 = target: T27, AKT1 (Homo sapiens, UniProt P31749)
T27 construct: host or cells: E. coli (BL21-derived), T7 phage lysate
Method in brief: as §1

ACVR2B = target: T28, ACVR2B (Homo sapiens, UniProt Q13705)
T28 construct: host or cells: E. coli (BL21-derived), T7 phage lysate
Method in brief: as §1

PFTAIRE2 = target: T29, PFTAIRE2 (Homo sapiens, UniProt Q96Q40)
T29 construct: host or cells: E. coli host derived from BL21, infected with T7 phage
Method in brief: as §1

CSNK1G3 = target: T30, CSNK1G3 (Homo sapiens, UniProt Q9Y6M4)
T30 construct: purchased Ambit Biosciences Corp (KinomeScan); host or cells: T7 phage in E. coli host derived from BL21
Method in brief: as §1

CHEK2 = target: T31, CHEK2 (Homo sapiens, UniProt O96017)
T31 construct: host or cells: T7 phage in E. coli host derived from BL21
Method in brief: as §1

RIOK2 = target: T32, RIOK2 (Homo sapiens, UniProt Q9BVS4)
T32 construct: host or cells: E. coli host derived from BL21, T7 phage display
Method in brief: as §1

KIT(V559D) = target: T33, KIT(V559D) (Homo sapiens, UniProt P10721, V559D)
T33 construct: host or cells: T7 phage grown in E. coli host derived from BL21
Method in brief: as §1

FLT3 = target: T34, FLT3 (Homo sapiens, UniProt P36888)
T34 construct: host or cells: T7 phage in E. coli host derived from BL21
Method in brief: as §1

T15 sequence (Q9H3Y6 whole entry): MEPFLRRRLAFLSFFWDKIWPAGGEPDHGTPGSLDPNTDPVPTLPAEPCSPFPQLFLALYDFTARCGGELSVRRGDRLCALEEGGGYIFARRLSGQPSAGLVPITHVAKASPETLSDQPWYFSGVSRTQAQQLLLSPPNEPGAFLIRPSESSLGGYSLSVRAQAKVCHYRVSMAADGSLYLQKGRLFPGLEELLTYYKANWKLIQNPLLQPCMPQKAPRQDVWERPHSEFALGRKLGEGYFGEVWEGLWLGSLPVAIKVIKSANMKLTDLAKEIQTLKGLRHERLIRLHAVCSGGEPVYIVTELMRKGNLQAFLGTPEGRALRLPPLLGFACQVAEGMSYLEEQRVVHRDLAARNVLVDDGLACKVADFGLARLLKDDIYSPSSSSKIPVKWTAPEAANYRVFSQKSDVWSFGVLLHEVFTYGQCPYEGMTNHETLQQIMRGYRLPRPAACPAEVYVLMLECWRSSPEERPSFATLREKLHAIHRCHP
T19 sequence (Q9Y5S2 whole entry): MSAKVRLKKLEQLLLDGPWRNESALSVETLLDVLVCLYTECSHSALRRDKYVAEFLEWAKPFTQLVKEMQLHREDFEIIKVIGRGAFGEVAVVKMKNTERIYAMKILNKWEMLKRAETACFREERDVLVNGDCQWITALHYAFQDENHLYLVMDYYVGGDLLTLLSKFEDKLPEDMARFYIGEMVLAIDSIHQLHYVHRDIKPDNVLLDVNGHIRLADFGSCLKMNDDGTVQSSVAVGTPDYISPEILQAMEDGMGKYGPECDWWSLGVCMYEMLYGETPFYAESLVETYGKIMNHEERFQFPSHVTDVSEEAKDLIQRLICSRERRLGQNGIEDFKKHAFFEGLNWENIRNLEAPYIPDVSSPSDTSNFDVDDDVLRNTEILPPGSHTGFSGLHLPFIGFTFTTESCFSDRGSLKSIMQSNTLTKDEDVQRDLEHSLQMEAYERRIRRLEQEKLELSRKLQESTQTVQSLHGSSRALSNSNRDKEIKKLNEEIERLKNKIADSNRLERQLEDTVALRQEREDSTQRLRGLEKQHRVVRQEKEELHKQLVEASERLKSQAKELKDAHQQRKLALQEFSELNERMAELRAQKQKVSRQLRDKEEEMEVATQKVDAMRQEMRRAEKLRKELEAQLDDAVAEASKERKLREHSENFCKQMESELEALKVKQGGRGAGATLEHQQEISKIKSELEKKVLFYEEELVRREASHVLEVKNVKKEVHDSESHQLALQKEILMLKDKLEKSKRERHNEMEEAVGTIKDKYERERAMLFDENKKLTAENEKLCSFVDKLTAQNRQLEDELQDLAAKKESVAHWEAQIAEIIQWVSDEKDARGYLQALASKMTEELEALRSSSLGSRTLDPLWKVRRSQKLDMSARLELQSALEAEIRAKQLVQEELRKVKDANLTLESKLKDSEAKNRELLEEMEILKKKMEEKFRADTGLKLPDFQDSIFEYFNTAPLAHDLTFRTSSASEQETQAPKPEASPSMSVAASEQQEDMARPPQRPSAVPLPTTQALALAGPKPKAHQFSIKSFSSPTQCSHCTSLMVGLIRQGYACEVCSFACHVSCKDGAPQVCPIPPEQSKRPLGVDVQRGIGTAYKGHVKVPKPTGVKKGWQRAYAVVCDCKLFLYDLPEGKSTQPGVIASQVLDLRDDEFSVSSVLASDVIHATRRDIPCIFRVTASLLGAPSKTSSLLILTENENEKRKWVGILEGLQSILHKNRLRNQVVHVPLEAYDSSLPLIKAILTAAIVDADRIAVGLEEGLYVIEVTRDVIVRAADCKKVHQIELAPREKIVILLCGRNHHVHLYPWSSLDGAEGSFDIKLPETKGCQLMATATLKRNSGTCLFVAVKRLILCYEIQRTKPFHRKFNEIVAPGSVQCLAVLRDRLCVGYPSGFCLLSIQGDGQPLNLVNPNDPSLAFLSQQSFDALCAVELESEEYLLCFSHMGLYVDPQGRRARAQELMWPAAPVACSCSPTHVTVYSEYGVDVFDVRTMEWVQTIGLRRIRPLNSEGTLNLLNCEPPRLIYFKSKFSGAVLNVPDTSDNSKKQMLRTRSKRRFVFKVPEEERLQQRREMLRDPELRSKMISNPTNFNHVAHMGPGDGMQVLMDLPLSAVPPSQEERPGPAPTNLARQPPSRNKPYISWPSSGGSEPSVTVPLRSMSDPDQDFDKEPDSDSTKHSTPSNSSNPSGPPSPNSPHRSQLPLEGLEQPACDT
T14 sequence (O94921 whole entry): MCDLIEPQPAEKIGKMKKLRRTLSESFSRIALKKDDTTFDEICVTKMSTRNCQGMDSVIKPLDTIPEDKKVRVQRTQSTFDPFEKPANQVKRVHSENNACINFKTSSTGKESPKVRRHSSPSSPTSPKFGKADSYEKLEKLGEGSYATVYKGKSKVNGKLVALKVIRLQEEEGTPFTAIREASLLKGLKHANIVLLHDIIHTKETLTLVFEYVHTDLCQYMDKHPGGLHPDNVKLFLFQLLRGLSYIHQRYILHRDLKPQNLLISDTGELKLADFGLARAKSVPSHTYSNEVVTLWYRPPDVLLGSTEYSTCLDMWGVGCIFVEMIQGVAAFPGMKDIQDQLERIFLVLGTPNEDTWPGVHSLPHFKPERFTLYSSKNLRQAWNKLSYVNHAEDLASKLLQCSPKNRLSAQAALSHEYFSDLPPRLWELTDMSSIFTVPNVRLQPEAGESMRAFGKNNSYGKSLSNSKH
T29 sequence (Q96Q40 whole entry): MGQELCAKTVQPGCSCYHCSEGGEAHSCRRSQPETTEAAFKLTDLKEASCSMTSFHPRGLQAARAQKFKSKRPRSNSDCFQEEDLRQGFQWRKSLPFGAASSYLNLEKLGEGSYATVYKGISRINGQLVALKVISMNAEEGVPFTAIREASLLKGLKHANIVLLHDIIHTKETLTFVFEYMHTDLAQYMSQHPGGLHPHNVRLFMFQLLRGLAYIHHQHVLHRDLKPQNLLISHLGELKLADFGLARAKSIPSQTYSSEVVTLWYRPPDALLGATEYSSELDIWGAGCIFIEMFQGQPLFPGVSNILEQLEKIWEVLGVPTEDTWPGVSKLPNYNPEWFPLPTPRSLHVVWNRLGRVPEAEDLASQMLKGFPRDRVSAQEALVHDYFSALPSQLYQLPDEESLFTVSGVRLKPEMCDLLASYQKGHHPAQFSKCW
T30 sequence (Q9Y6M4 whole entry): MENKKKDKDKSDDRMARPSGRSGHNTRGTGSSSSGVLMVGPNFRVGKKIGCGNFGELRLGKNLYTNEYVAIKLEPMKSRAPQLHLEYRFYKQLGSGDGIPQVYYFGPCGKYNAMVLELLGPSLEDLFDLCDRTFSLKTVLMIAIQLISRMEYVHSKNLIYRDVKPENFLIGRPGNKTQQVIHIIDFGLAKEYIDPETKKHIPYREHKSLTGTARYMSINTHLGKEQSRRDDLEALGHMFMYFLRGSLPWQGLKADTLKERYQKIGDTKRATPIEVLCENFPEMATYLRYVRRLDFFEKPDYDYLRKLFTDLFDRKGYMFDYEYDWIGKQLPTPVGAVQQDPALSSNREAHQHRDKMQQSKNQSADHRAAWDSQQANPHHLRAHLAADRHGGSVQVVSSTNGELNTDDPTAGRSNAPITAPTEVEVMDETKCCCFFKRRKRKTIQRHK
T28 sequence (Q13705 19-512): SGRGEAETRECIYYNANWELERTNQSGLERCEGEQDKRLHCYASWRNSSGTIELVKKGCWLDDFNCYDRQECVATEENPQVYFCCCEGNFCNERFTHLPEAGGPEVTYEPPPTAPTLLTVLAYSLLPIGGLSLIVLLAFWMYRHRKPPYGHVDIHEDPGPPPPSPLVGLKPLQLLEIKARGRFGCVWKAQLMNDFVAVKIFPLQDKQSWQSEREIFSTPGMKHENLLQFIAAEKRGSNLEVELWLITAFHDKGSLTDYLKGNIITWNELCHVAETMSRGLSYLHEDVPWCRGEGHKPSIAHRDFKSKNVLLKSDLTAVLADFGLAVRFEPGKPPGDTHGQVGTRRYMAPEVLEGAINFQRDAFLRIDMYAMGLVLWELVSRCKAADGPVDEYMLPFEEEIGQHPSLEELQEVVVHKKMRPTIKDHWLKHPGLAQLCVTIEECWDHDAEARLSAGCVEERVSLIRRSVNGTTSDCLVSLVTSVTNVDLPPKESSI
T34 sequence (P36888 27-993): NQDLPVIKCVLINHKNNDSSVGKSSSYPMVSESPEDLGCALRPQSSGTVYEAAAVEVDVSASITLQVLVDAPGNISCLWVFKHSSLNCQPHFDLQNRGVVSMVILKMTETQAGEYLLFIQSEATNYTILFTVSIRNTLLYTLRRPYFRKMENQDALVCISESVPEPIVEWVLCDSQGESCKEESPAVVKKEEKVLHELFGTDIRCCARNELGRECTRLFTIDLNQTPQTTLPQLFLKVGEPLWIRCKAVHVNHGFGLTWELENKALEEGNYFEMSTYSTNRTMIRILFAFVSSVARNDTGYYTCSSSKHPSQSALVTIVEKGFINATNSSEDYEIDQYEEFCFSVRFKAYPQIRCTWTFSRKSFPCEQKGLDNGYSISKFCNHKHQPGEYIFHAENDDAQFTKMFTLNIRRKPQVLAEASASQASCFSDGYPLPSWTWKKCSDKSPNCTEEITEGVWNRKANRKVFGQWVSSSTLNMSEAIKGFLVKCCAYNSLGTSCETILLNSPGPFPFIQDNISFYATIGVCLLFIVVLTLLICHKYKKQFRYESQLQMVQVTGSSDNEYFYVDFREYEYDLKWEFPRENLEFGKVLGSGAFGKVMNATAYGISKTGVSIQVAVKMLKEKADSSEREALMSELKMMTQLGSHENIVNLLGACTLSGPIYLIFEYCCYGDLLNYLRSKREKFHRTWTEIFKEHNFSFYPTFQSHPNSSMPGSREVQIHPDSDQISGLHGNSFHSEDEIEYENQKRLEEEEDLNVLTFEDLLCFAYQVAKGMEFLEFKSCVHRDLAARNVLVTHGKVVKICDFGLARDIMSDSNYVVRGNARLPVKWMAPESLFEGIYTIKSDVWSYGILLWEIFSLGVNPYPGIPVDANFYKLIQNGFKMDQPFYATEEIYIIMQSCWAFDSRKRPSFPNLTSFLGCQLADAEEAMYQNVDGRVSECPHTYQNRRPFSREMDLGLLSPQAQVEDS

SMILES: C#Cc1cccc(Nc2ncnc3cc(OC)c(OCCCN4CCOCC4)cc23)c1 [NRC-2694, N-(3-ethynylphenyl)-7-methoxy-6-[3-(4-morpholinyl)propoxy]-4-quinazolinamine]
- remaining binding at 10 µM (TIE1): 52%
- remaining binding at 10 µM (RAF1): 100%
- remaining binding at 10 µM (PIK3CB): 100%
- remaining binding at 10 µM (JNK2): 95%
- remaining binding at 10 µM (RIOK1): 36%
- remaining binding at 10 µM (CHEK1): 42%
- remaining binding at 10 µM (TYRO3): 42%
- remaining binding at 10 µM (FGFR3(G697C)): 82%
- remaining binding at 10 µM (PRKCH): 83%
- remaining binding at 10 µM (ABL1(M351T)): 37%
- remaining binding at 10 µM (ABL1): 67%
- remaining binding at 10 µM (EPHA4): 64%
- remaining binding at 10 µM (IKK-alpha): 41%
- remaining binding at 10 µM (PFTK1): 71%
- remaining binding at 10 µM (SRMS): 100%
- remaining binding at 10 µM (CDK7): 0.55%
- remaining binding at 10 µM (MYLK): 62%
- remaining binding at 10 µM (FYN): 41%
- remaining binding at 10 µM (MRCKB): 71%
- remaining binding at 10 µM (RET(M918T)): 37%
- remaining binding at 10 µM (CSNK1A1L): 44%
- remaining binding at 10 µM (BTK): 77%
- remaining binding at 10 µM (JNK1): 99%
- remaining binding at 10 µM (MEK1): 50%
- remaining binding at 10 µM (ACVR1B): 63%
- remaining binding at 10 µM (GSK3B): 100%
- remaining binding at 10 µM (AKT1): 100%
- remaining binding at 10 µM (ACVR2B): 63%
- remaining binding at 10 µM (PFTAIRE2): 71%
- remaining binding at 10 µM (CSNK1G3): 61%
- remaining binding at 10 µM (CHEK2): 38%
- remaining binding at 10 µM (RIOK2): 43%
- remaining binding at 10 µM (KIT(V559D)): 17%
- remaining binding at 10 µM (FLT3): 49%

— patent US8921362B2, “6,7-dialkoxy quinazoline derivatives and methods of treating drug resistant and other tumors” (Natco Pharma Limited, priority 2008, dated 2014)
